The text below walks through data of patent US20130316946A1, “EXTENDED RECOMBINANT POLYPEPTIDE-MODIFIED C-PEPTIDE” (Cebix, Inc., priority 2012, published 2013).

Series [1] in a line: Pharmacokinetics of unmodified C-peptide in beagle dogs after a single S.C. dose. In kind it is in vivo. On the procedure: A pharmacokinetic (PK) study was conducted to determine the C-peptide PK profile with unmodified C-peptide in beagle dogs.
Methods: Two male and one female dog received S.C. the unmodified synthetic human C-peptide (0.5 mg/kg; 0.025 mL/kg) formulated in phosphate buffered saline (20 mg/mL). Dogs were bled by venipuncture and blood samples were collected at predetermined time points over 14 days. Plasma samples were obtained after centrifugation of the blood (3,000 rpm for 10 minutes) and stored at −80° C. until analysis. A CRO with Good Laboratory Practice (GLP) capabilities (MicroConstants, Inc.; San Diego, Calif.) performed the bioanalytical work. Plasma levels of C-peptide were measured by an enzyme-linked immunosorbant assay (ELISA) technique based on a commercial kit for human C-peptide determination (Mercodia; catalog number 10-1136-01) using the manufacturer's instructions. Results were expressed as C-peptide concentrations. For the PK analysis, the below quantitation level (BQL) was treated as zero and nominal time points were used for all calculations. PK parameters were determined by standard model independent methods based on the individual plasma concentration-time data for each animal using model 200 in WinNonlin Professional 5.2.1 (Pharsight Corp., Mountain View, Calif.).

For series [2] the following is noted: in vivo; cited from earlier work.
The nature of series [3]: Stability of C-peptide-XTEN in rat kidney lysate. Conditions: 37° C., over 3 days, SDS PAGE / Western. The format is in vitro ADME. On the procedure: A fusion protein […] followed by detection using Western analysis and detection with antibodies against C-peptide. […] The in vivo stability of the fusion protein is tested in plasma samples wherein the C-peptide_AE864 is immunoprecipitated and analyzed by SDS PAGE as described above.

Series [4] can be described thus: Stability of C-peptide-XTEN in monkey plasma. In kind it is in vitro ADME. Conditions: 37° C., over 7 days, SDS PAGE / Western. On the procedure: A fusion protein containing XTEN_AE864 fused to the N-terminus of C-peptide is incubated in monkey plasma and rat kidney lysate for up to 7 days at 37° C. Samples are withdrawn at time 0, Day 1 and Day 7 and analyzed by SDS PAGE followed by detection using Western analysis and detection with antibodies against C-peptide. […] The in vivo stability of the fusion protein is tested in plasma samples wherein the C-peptide_AE864 is immunoprecipitated and analyzed by SDS PAGE as described above.

Take `CC(C)C[C@H](NC(=O)[C@H](C)NC(=O)[C@H](CC(C)C)NC(=O)[C@@H]1CCCN1C(=O)[C@H](CCC(N)=O)NC(=O)[C@H](CC(C)C)NC(=O)[C@H](CO)NC(=O)CNC(=O)[C@H](C)NC(=O)CNC(=O)[C@@H]1CCCN1C(=O)CNC(=O)CNC(=O)CNC(=O)[C@H](CC(C)C)NC(=O)[C@H](CCC(=O)O)NC(=O)[C@@H](NC(=O)[C@H](CCC(N)=O)NC(=O)CNC(=O)[C@@H](NC(=O)[C@H](CCC(N)=O)NC(=O)[C@H](CC(C)C)NC(=O)[C@H](CC(=O)O)NC(=O)[C@H](CCC(=O)O)NC(=O)[C@H](C)NC(=O)[C@@H](N)CCC(=O)O)C(C)C)C(C)C)C(=O)N[C@@H](CCC(=O)O)C(=O)NCC(=O)N[C@@H](CO)C(=O)N[C@@H](CC(C)C)C(=O)N[C@@H](CCC(N)=O)C(=O)O` [CP-AQ, human C-peptide]: the “circulating levels of C-peptide below quantitation level (BQL)” value in series [1] (dog, in vivo, sc) is “BQL within half a day”. In addition, the “tolerability (clinical abnormalities)” value in series [1] (dogs, single S.C. dose 0.5 mg/kg) is given as “well tolerated”.
For Aspart, the “peak time of effect” value in series [2] is listed as “around 30 minutes”.
For the molecule Glargine insulin, in series [2], the duration of activity is 24 h and the “peak time of effect” value is reported as “no peak effect”.
In the case of Glulisine, the “peak time of effect” value in series [2] is “around 30 minutes”.
Take Lispro: in series [2], the “peak time of effect” value is listed as “around 30 minutes”.
For the molecule Regular insulin, the onset of action in series [2] was 30 to 60 min.

B1: AE864: XTEN polypeptide of 864 amino acid residues, SEQ ID NO:70 (protein)
chain: GSPAGSPTSTEEGTSESATPESGPGTSTEPSEGSAPGSPAGSPTSTEEGTSTEPSEGSAPGTSTEPSEGSAPGTSESATPESGPGSEPATSGSETPGSEPATSGSETPGSPAGSPTSTEEGTSESATPESGPGTSTEPSEGSAPGTSTEPSEGSAPGSPAGSPTSTEEGTSTEPSEGSAPGTSTEPSEGSAPGTSESATPESGPGTSTEPSEGSAPGTSESATPESGPGSEPATSGSETPGTSTEPSEGSAPGTSTEPSEGSAPGTSESATPESGPGTSESATPESGPGSPAGSPTSTEEGTSESATPESGPGSEPATSGSETPGTSESATPESGPGTSTEPSEGSAPGTSTEPSEGSAPGTSTEPSEGSAPGTSTEPSEGSAPGTSTEPSEGSAPGTSTEPSEGSAPGSPAGSPTSTEEGTSTEPSEGSAPGTSESATPESGPGSEPATSGSETPGTSESATPESGPGSEPATSGSETPGTSESATPESGPGTSTEPSEGSAPGTSESATPESGPGSPAGSPTSTEEGSPAGSPTSTEEGSPAGSPTSTEEGTSESATPESGPGTSTEPSEGSAPGTSESATPESGPGSEPATSGSETPGTSESATPESGPGSEPATSGSETPGTSESATPESGPGTSTEPSEGSAPGSPAGSPTSTEEGTSESATPESGPGSEPATSGSETPGTSESATPESGPGSPAGSPTSTEEGSPAGSPTSTEEGTSTEPSEGSAPGTSESATPESGPGTSESATPESGPGTSESATPESGPGSEPATSGSETPGSEPATSGSETPGSPAGSPTSTEEGTSTEPSEGSAPGTSTEPSEGSAPGSEPATSGSETPGTSESATPESGPGTSTEPSEGSAP
modifications: AE864 XTEN polypeptide
In the case of B1, in series [3], the “degradation in rat kidney lysate” value was “rapidly degraded”. Moreover, the “degradation in monkey plasma” value in series [4] is “negligible signs of degradation”.
